Measured values: paper PMC4416488 (Bioorganic & medicinal chemistry letters, 2015)

Experiments:
[1] = system: tubulin; assay: Inhibition of tubulin assembly
[2] = system: A549 human lung cancer cell line; assay: Cytotoxic activity against A549 lung cancer cell line

SMILES | Activity as tubulin polymerization/assembly inhibitor (in words) [1] | Cytotoxic activity against A549 cell line (in words) [2]
COC(=O)Nc1nc2ccc(C(=O)c3sccc3O)cc2[nH]1 [Compound 4] | excellent activities | 
COC(=O)Nc1nc2ccc(C(=O)c3ccc(OC)cc3O)cc2[nH]1 [Compound 2] | excellent activities | no activity
COC(=O)Nc1nc2ccc(/C=C\c3cc(OC)c(OC)c(OC)c3)cc2[nH]1 [Compound 1] | excellent activities | 
COC(=O)Nc1nc2ccc(C(=O)c3ccc(O)cc3O)cc2[nH]1 [Compound 3] | inactive | no activity
